What was measured:
[1] = test system: human monocyte-derived macrophages (MDM) using THP-1 cells; assay: Proinflammatory cytokines after Pg-LPS challenge (qRT-PCR, ELISA); assay type: cell-based
Method: Sg metabolites modulate proinflammatory cytokines in human periodontal associated cells in vitro. Sg were cultured in a total of 40 ml DMEM for 24 hrs. After 200 μl of Sg suspension reached 0.2 at OD600 value in a 96-well plate, the Sg metabolites were collected by centrifugation at 3000 g for 10 min and then filtered through a 0.22 μm filter. No toxicity of Sg metabolites was detected using an MTT assay on primary human bone marrow mesenchymal stromal cells (BMSCs) and primary human gingival fibroblasts (HGF) (data no shown). The modulation of Sg metabolites on inflammatory cytokines was tested using human monocyte-derived macrophages (MDM) and HGF. The MDM were generated by inducing a human macrophage cell line (THP-1) using PMA at 10 ng/ml. The MDM at 2×10^6 cells/per well and HGF at 2×10^4 cells/per well were cultured in 24-well plates using DMEM with 10% FBS and 1% PS. The Sg metabolites at 1 and 5% v/v were added and incubated for 24 hrs before challenging with Pg-LPS at 100 ng/ml.
Human monocyte-derived macrophages (MDM) using THP-1 cells and HGF were cultured in a 24-well plate with DMEM and challenged with Pg-LPS at 100 ng/ml.
In addition, freshly isolated epidydimal white adipose tissues (eWAT) from mice on a HFD for 16 weeks were minced and cultured in 24-well plates and treated with HCA at 0.5 and 1.0 μM in DMEM/F-12 containing 10% cosmic calf serum (CCS) and 1% penicillin-streptomycin (basal growth media, BGM). […] These preliminary data are strong evidence that Sg metabolites have the potential to modulate host inflammatory responses and attenuate inflammation.
HCA promotes proliferation of health related bacteria and inhibits proliferation and attachment of periodontopathogenic bacteria. Promoting the growth of health-related commensal bacteria while inhibiting proliferation and attachment of pathogenic bacteria may be effective at preventing or treating periodontal inflammation. To determine if HCA has an effect on the growth properties of commensal bacteria and periodontopathogens, HCA at different concentrations was added to aerobic culture of S. mitis and S. oralis and anaerobic culture of T. denticola as described in our published manuscript (see detail in Shu et al, Journal of Periodontology, 2022). FIGS. 18A-C summarize the functions of HCA on the proliferation of specific commensal and pathogenic bacteria. […] Furthermore, the function of HCA on P. gingivalis attachment, a key parameter of adhesion and biofilm formation by periodontopathogenic bacteria, was investigated. […] Attachment measurements of P. gingivalis were performed based on our published studies (see detail in Shu et al, Journal of Periodontology, 2022). […] To test the biocompatibility and anti-inflammatory properties of HCA, human monocyte-derived macrophages (MDM) and gingival fibroblasts (HGF) were prepared as described in our previous studies. The cells were then treated with HCA from 0.1 to 50 μM. No toxicity was observed after treatment with different concentrations of HCA in either cell type using an MTT assay (FIGS. 19A and B, left column). The anti-inflammatory function of HCA on MDM and HGF after exposure to P. gingivalis lipopolysaccharide (PG-LPS) was investigated. […] HCA mitigates inflammation and affects the composition of microbiomes in vivo. Recent studies investigated whether HCA modulates periodontal inflammation using a mouse model. To induce periodontal inflammation, a total of 1 μl Pg-LPS at 10 μg/μl was directly injected twice a week into the interdental region between maxillary molars of C57BL/6J mice using a Hamilton1700 series syringe according to our previously published studies. 100 μl of HCA at 0.5 μM was administrated I.P. three time a week. […] It was also tested whether HCA affects the composition of the microbiome in vivo. For this purpose, high fat diet-induced obese (DIO) mice (The Jackson Laboratory) received I.P, administration of 100 μl of HCA at 0.2 and 0.5 μM three times a week for 3 weeks. […]

HGF = assay: Anti-inflammatory miR expression after Pg-LPS challenge; assay type: cell-based, human; conditions: 24 hours after Pg-LPS challenge
Method: FIGS. 11A-11B. Sg metabolites upregulate anti-inflammatory miRs in human macrophages and HGF. A-B: Relative transcript changes of miR-200c, 146a, and 21 in HGF (A) and human MDM (B) treated with AICAR, MA, HCA, and HPLA 24 hours after Pg-LPS challenge; performed in duplicate.

C57BL/6J mice = assay: Pg-LPS gingival injection mouse model of periodontal inflammation; assay type: in vivo; conditions: 100 μl of HCA at 0.5 μM I.P. three times a week, 3 weeks

O=C(O)CCCCCO [HCA, 6-hydroxycaproic acid] was tested, and the “transcripts of IL-1β, IL-6, and IL-8” value ([1]; HCA at 0.1 μM, 6 hours following PG-LPS challenge at 0.1 μg/mL) was “significantly downregulated”, the “protein levels of IL-6 and IL-8” value ([1]; HCA at 0.1 μM, supernatant, after 24 hrs) was “significantly reduced” and the “transcripts of IL-1β, 6, and 8” value ([1]; HCA at 0.1 and 1.0 μM, Pg-LPS at 100 ng/ml, after 6 hrs) was “significantly downregulated”. The “proinflammatory cytokines (IL-6 transcript and IL-6 protein in supernatants)” value ([1]; at 0.1 μg after Pg-LPS challenge) was “modulate”, the “anti-inflammatory miRs (miR-200c, 146a, and 21)” value (HGF) was “upregulate” and the “serum IL-1β production (ELISA)” value (C57BL/6J mice) was “significantly reduced”. The “gingival IL-1β expression (qRT-PCR)” value (C57BL/6J mice; Pg-LPS twice a week) was “suppressing gingival IL-1β expression”.

— US20230277483A1, “COMPOSITIONS AND METHODS TO TREAT INFLAMMATION” (University of Iowa Research Foundation, priority 2022, published 2023)
